Test results published in patent US20140303109A1 (priority 2010, published 2014).
Read-outs that look alike come from different tables or passages of the source.

Experiments:
[1] = test system: AsPC-1 and MIAPaCa-2 cells; assay: Clonogenic assay, parental lines; format: cell-based, human; details: 4 μmol/L CUR or CDF, 20 nmol/L GEM
[2] = test system: miR-21, miR-200b, miR-200c; assay: RT-PCR of miR-21, miR-200b, miR-200c in MIAPaCa-2 tumors; format: in vivo, mice
Protocol: Therefore, the expression of miRNAs (miRNA-200b, miR-200c, and miR-21) in MIAPaCa-2 tumors, was assessed with a TaqMan MicroRNA Assay kit (Applied Biosystems, Carlsbad, Calif.) following the manufacturer's protocol. 5 ng of total RNA was reverse transcribed and real-time PCR reactions were carried as previously described.

[3] = Pancreas tissue pharmacokinetics after single intragastric dose; format: in vivo, mice
Protocol: The mice were randomly divided into two groups of 18 mice apiece. […] Blood and tissue samples were harvested before initiation of treatment (0 hr) and at 1, 2, 4, 6, 8, 12, 16, and 24 hrs following the intragastric administration. At each time point, two mice were euthanized and ˜200 μL blood was collected by cardiac puncture, and tissues (liver, lung, kidney, heart, pancreas, and colon) were harvested, washed free of blood with PBS, blotted dry, weighed, and stored at −80° C. until analysis. The collected blood samples were allowed to clot, centrifuged, and then the serum was separated and stored at −80° C. until analysis.
The tissue samples were homogenized in 5 volumes of ice-cold normal saline. Aliquots of serum or tissue homogenate were spiked with ethyl acetate (containing 50 ng/ml zilueton as an internal standard) as follows: 100 μL serum/500 μL ethyl acetate and 500 μL tissue homogenate/1 ml ethyl acetate. The mixtures were vortex-mixed and centrifuged at 14,000 rpm for 5 minutes. The top layer was separated and dried under a stream of nitrogen in a water bath at about 50° C. The residue was reconstituted in 100 μL of methanol/water containing 0.45% formic acid (70:30 v/v) and then centrifuged again.
The supernatant (100 μL) was injected into the HPLC equipment, and separated on a Waters Xterra MS column (2.1×50 mm, […] i.d.) With a mobile phase consisting of methanol/water containing 0.45% formic acid (70:30 v/v) at a flow rate of 0.2 ml/min. The column effluent was monitored using a Waters Quattro Micro™ triple quadrapole mass-spectrometric detector equipped with an electrospray ionization source. (Waters Corporation, Milford, Mass.). […] The internal standard zilueton was monitored in the positive mode at the transition of m/z, 237.1→160.8. […] The within-day and between-day precision and accuracies of the assay was <15%.
Serum pharmacokinetic parameters were estimated using non-compartmental analysis with WinNonlin software version 4.2 (Pharsight Corporation, Cary, N.C.). The maximum serum concentration (Cmax) and the time of occurrence for maximum concentration (Tmax) were obtained by visual inspection of the serum concentration-time curve after drug administration. The total area under the serum concentration-time curve from time zero to the last measurable time point ([…]) was calculated using the linear and logarithmic trapezoidal method for ascending and descending serum concentrations, respectively.

[4] = test system: human colon cancer HCT 116 cells; assay: MTT assay, HCT 116 cell growth; format: cell-based; details: read-out: inhibition on cell proliferation
Protocol: The concentrations were 10 μM, 20 μM, and 30 μM. After aspiration of growth medium, (3-(4,5-Dimethylthiazol-2-yl)-2,5-diphenyltetrazolium bromide (MTT; 1 mg/ml) was added to the cell cultures, followed by incubation for 3 hours at 37° C. After the cells were crystallized, the MTT was removed and dimethylsulfoxide (DMSO) was added to dissolve the metabolized MTT product. The absorbance was then measured on a Wallac Victor^3 1420 Multi-label counter at 540 nm.

[5] = test system: NF-κB DNA binding activity; assay: EMSA for NF-κB DNA binding activity, three PC lines; format: cell-based, human; details: 72 h; CDF/CUR 1 or 4 μMol/L, GEM 10 nMol/L
Protocol: The DNA binding activity of the nuclear transcription factor, NF-κB was assessed in the BxPC-3, MIAPaCa-E, and MIAPaCa-M cell lines by EMSA. […] The cells were lysed in 400 μl of lysis buffer and the reaction was set up as described earlier in Ali, et al., id. The gel was scanned using an Odyssey Infrared Imaging System, (LI-COR, Inc., Lincoln, Nebr.). Equal protein loading was ensured by immunoblotting 10 μg of nuclear protein and probing with anti-retinoblastoma antibody.

miR-200b and miR-200c = assay: Real-time RT-PCR of miR-200b and miR-200c in PC cell lines; format: cell-based, human; details: 72 h; BxPC-3, MIAPaCa-E, MIAPaCaM
Protocol: The expression of miRNAs (miRNA-200a, miR-200b, and miR-21) in all three pancreatic cancer cell lines, was measured with a TaqMan MicroRNA Assay kit (Applied Biosystems, Carlsbad, Calif.) following the manufacturer's protocol. […] Real-time RT-PCR reactions were then carried out in a total volume of 25 μl reaction mixture, as described by Li, et al., id., using Smart Cycler II (Cepheid, Sunnyvale, Calif.). The data were analyzed using Ct method and were normalized by RNU6B expression in each sample.

[6] = test system: BxPC-3 pancreatic cancer cells; assay: Cell Apoptosis ELISA (histone/DNA fragments), BxPC-3; format: cell-based, human; details: 72 h, various concentrations
From the text: A Cell Apoptosis ELISA Detection Kit (Roche, Palo Alto, Calif.) was used to determine whether the inhibition of cell growth could be due, at least partially, to the induction of apoptosis, in the BxPC-3 pancreatic cancer cells. […] After the treatment, the cytoplasmic histone/DNA fragments were extracted and bound to immobilized anti-histone antibody. Subsequently, peroxidase-conjugated anti-DNA antibody was used for the detection of immobilized histone/DNA fragments.

PGE2 = PGE2 immunoassay, three PC lines; format: cell-based, human; details: 24 h serum-free; CDF or CUR 1-4 μMol/L, GEM 10 nMol/L
cellular 26S proteasome = biological target: T1, cellular 26S proteasome (Homo sapiens, UniProt P20618+P28074); assay: Proteasomal chymotrypsin-like activity in treated HCT 116 cells; format: cell-based; details: 24 h
T1 construct: host or cells: HCT 116 human colon cancer cells
Protocol: HCT 116 human colon cancer cells; human pancreatic carcinoma cell lines BxPC-3 and MIA PaCa-2, were purchased from American Type Culture Collection (Manassas, Va.) and grown in Dulbecco modified Eagle's medium supplemented with 10% fetal bovine serum (FBS), 100 units/ml of penicillin, and 100 μg/ml of streptomycin. Cells were maintained at 37° C. and 5% CO2. FBS was obtained from Tissue Culture Biologicals (Tulare, Calif.). Penicillin and streptomycin were purchased from Invitrogen Co. (Carlsbad, Calif.).
As a control, untreated cells were maintained in the solvent ethanol (E).

[7] = pancreas, 250 mg/kg single intragastric
[8] = female, ICR-SCID, mouse, po, pancreas, 250 mg/kg single intragastric

SMILES	clonogenicity [1]	expression of miR-200b and miR-200c in tumors [2]	AUClast [3, 7] [µg·h/g]	Clast [3, 7] [µg/g]	Tlast [3, 7] [h]	NF-κβ DNA binding activity [5]	expression of miR-200b and miR-200c (miR-200b and miR-200c)	induction of apoptotic cell death [6]	PGE2 secretion level (PGE2)	inhibition at 10 µM (cellular 26S proteasome) [%]	inhibition at 20 µM (cellular 26S proteasome) [%]	inhibition at 30 µM (cellular 26S proteasome) [%]	further results
COc1cc(/C=C/C(=O)CC(=O)/C=C/c2ccc(O)c(OC)c2)ccc1O [CUR, (1E,6E)-1,7-bis(4-hydroxy-3-methoxyphenyl)hepta-1,6-diene-3,5-dione, reference compound]	significant reduction in clonogenicity	minimal	3.46	0.20	16.0	much lower effects on NF-κβ DNA binding activity than the CDF-treated cells	increased expression of miR-200b and miR-200c	induce apoptosis	significant reduction in PGE2 level	27	47	64	inhibition at 10 µM ([4]; HCT-116, 24 h): 24%; inhibition at 20 µM ([4]; HCT-116, 24 h): 53%; inhibition at 30 µM ([4]; HCT-116, 24 h): 49%
COc1cc(/C=C/C(=O)C(=Cc2ccc(F)c(F)c2)C(=O)/C=C/c2ccc(O)c(OC)c2)ccc1O [CDF, (1E,6E)-1,7-bis(4-hydroxy-3-methoxyphenyl)hepta-1,6-diene{4(3,4 difluorobenzaldehyde)}-3,5-dione]	significant reduction in clonogenicity	increased expression of both miR-200b, and miR-200c	36.56	0.04	12.0	significant inhibition in the DNA binding activity of NF-κβ in all three cell lines	much more pronounced	superior to CUR	significant reduction in PGE2 level	34	51	61	expression of MiR-21 in tumors [2]: significant reduction in the expression of MiR-21; AUClast in pancreas tissue relative to CUR ([3]; 250 mg/kg): 10.6 times; Cmax in pancreas tissue relative to CUR ([3]; 250 mg/kg): 4.3 times; Kp at 8 h ([3]; female, ICR-SCID, mouse, pancreas / serum, oral, 250 mg/kg, at 8 h, read-out: Cmax in pancreas relative to serum): 44.5; Cmax [3, 8]: 9350 ng/g; Tmax [3, 8]: 8 h; inhibition at 10 µM ([4]; HCT-116, 10 μM, 24 h): 24%; inhibition at 20 µM ([4]; HCT-116, 20 μM, 24 h): 39%; inhibition at 30 µM ([4]; HCT-116, 30 μM, 24 h): 68%
